Test results as given in patent US8541193B2, “Cationic anti-microbial peptides and methods of use thereof” (Systagenix Wound Management (US), Inc., priority 2003, dated 2013).
Where no end group is shown, it is not given here.

How the values were obtained:
[1] = system: Serratia; test: Fluorimetric (edans/dabcyl) protease detection assay with bacterial culture in buffer; assay type: biochemical; conditions: Serratia bacterial culture (media and cells), 37 C, 1 hr
Method: (§1) The peptide substrates used here were labeled with the fluorescent probe edans (5-((2-aminoethyl)amino)naphthalene-1-sulphonic acid) and the quencher dye molecule dabcyl((4-(4-(dimethylamino)phenyl)azo)benzoic acid).
(§2) The bacteria were grown in an incubator overnight at 37° C. in 5 ml BHI (Brain Heart Infusion) media. Each of the resulting cultures was split into two samples. One was used as is, and the other was spun down and the supernatant was collected. The assays were run in 20 mM tris buffer (pH 7.4) with 150 mM NaCl added. The reaction was carried out with 7 μl of culture or supernatant and 3 μl peptide substrate (5 mg/ml in water) in 100 μl total volume at 37 C. The reaction was followed on a fluorimetric plate reader using an excitation wavelength of 355 nm and an emission wavelength of 485 nm.
The first set of experiments was performed by addition of the bacterial culture (media and cells) directly into the assay solution. If the protease is attached to the cell membrane it would not be expected to be found secreted into the media. […]
Bacterial cells used in this assay were grown to stationary phase in Brain Heart Infusion (BHI) medium. […] The reaction was followed on a 96 well microtiter plate reader using an excitation an emission wavelength of 355 nm and 538 nm respectively at 37° C. The reaction was monitored for a period of 1 hr. and plotted using the KALEIDAGRAPH software. […]

[2] = system: Pseudomonas; test: Fluorimetric (edans/dabcyl) protease detection assay with bacterial culture or supernatant in buffer; assay type: biochemical
Method: as §1, §2
(§3) The first set of experiments was performed by addition of the bacterial culture (media and cells) directly into the assay solution. If the protease is attached to the cell membrane it would not be expected to be found secreted into the media. Thus, the presence of cells would be necessary.
(§4) Bacterial cells used in this assay were grown to stationary phase in Brain Heart Infusion (BHI) medium. Briefly, 7 μl of bacterial culture was incubated with 3 μl of LL 1 peptide substrate and […] of […]). The reaction was followed on a 96 well microtiter plate reader using an excitation an emission wavelength of 355 nm and 538 nm respectively at 37° C. The reaction was monitored for a period of 1 hr. and plotted using the KALEIDAGRAPH software. Buffer, 20 mM Tris buffer (pH 7.4) with 150 mM NaCl.
(§5) The assay was repeated using identical conditions with the peptide LL2.
(§6) Bacterial cells used in this assay were grown to stationary phase in Brain Heart Infusion (BHI) medium. The assay was performed as previously described.

[3] = system: S. pyogenes; test: as above; assay type: biochemical
Method: as §1, §2, §3, §4, §5, §6

[4] = system: Pseudomonas; test: Porcine wound fluid protease assay; assay type: biochemical
Method: (§7) In order to test for cross reactivity in a wound, the assays were performed under physiologically relevant conditions. The assay for LL1 and LL2 were tested using porcine wound fluid extract in place of reaction buffer.
(§8) Immediately after surgery to create partial thickness wounds for the sensor study a gauze dressing was placed on the wound. After a time the dressing was removed, bagged, and placed in a freezer at −80 C. Absorbed wound fluid was recovered from the dressing by incubation in 10 mls buffer (0.1M Tris-HCl, pH 7.4 with 0.1% TRITON X-100® non-ionic surfactant (Octylphenol ethylene oxide condensate; Sigma Aldrich, St. Louis, Mo.). The dressing was incubated on both sides for 2 hours at room temperature and squeezed out. The fluid obtained was aliquoted out and frozen at −20 C.
as §2, with “was” for “was split into two samples. One was used as is, and the other was”, “freshly thawed wound fluid.” for “20 mM tris buffer (pH 7.4) with 150 mM NaCl added.”
(§9) The protease assay was run using the LL2 peptide previously identified as a substrate for S. pyogenes and Pseudomonas.
(§10) Bacterial cells used in this assay were grown to stationary phase in Brain Heart Infusion […] medium. Briefly, 5 μl of bacterial culture was incubated with 3 μl of LL2 peptide substrate and 92 μl of sterile wound fluid. The reaction was followed on a 96 well microtiter plate reader using an excitation an emission wavelength of 355 nm and 538 nm respectively at 37° C. The reaction was monitored for a period of 1 h and plotted using the KALEIDAGRAPH software.

[5] = system: S. pyogenes; test: Porcine wound fluid protease assay; assay type: biochemical; conditions: S. pyogenes bacterial supernatant in porcine wound fluid
Method: as §7, §8
as §2, with “was” for “was split into two samples. One was used as is, and the other was”, “freshly thawed wound fluid.” for “20 mM tris buffer (pH 7.4) with 150 mM NaCl added.”
as §9, §10

[6] = system: proteinases secreted by Pseudomonas aeruginosa; conditions: in vitro; cited from earlier work
[7] = system: proteinases secreted by Streptococcus pyogenes; conditions: in vitro; cited from earlier work
[8] = system: proteinases secreted by Proteus mirabilis; conditions: in vitro; cited from earlier work
[9] = system: proteinases secreted by Enterococcus faecalis; conditions: in vitro; cited from earlier work
[10] = Pseudomonas bacterial culture (media and cells), buffer, 37 C, 1 hr
[11] = Pseudomonas bacterial supernatant, compared with culture with cells
[12] = S. pyogenes bacterial culture (media and cells), buffer, 37 C, 1 hr

| Substance | protease activity on peptide substrate (fluorescence) [1] | protease activity on peptide substrate (fluorescence) [2, 10] | protease activity on peptide substrate (fluorescence) [2, 11] | protease activity on peptide substrate (fluorescence) [3, 12] | protease activity on peptide substrate (fluorescence) ([3]; S. pyogenes bacterial supernatant, compared with culture with cells) | protease activity on peptide substrate (fluorescence) ([4]; Pseudomonas bacterial culture in sterile porcine wound fluid, 37 C, 1 h) | protease activity on peptide substrate (fluorescence) ([4]; Pseudomonas bacterial supernatant in porcine wound fluid) | protease activity on peptide substrate (fluorescence) [5] | specificity of peptide substrate ([3]; FIG. 3 legend) | degradation of peptide by secreted proteinases [6] | degradation of peptide by secreted proteinases [7] | degradation of peptide by secreted proteinases [8] | degradation of peptide by secreted proteinases [9] |
| --- | --- | --- | --- | --- | --- | --- | --- | --- | --- | --- | --- | --- | --- |
| LL1: peptide substrate, variant of LL-37 encompassing its cleavage sites, labeled with fluorescent probe edans and quencher dabcyl (FIG. 1B) (KEKIGKEFKRIVQE; also: labeled with edans and dabcyl) | a small amount of activity | Some protease activity | reduced | Some protease activity | similar | – | – | – | – | – | – | – | – |
| LL2: peptide substrate, variant of LL-37 encompassing its cleavage sites, labeled with fluorescent probe edans and quencher dabcyl (FIG. 1C) (KVQRIKDFLRNLVE; also: labeled with edans and dabcyl) | – | overall reactivity appears to be reduced somewhat | reduced | overall reactivity appears to be reduced somewhat | – | did not have any activity above the background | same results | same results | specific for S. pyogenes | – | – | – | – |
| LLGDFFRKSKEKIGKE FKRIVQRIKDFLRNLVPRTES [LL-37] | – | – | – | – | – | – | – | – | – | degrade | degrade | degrade | degrade |
